Results taken from patent US20160333419A1, “GENE SIGNATURES ASSOCIATED WITH SENSITIVITY TO MDM2 INHIBITORS” (DAIICHI SANKYO COMPANY, LIMITED, priority 2014, published 2016).
pIC50: −log10 of the molar value.

Legend:
Assay in all cases: OncoPanel cytotoxicity assay
Format in all cases: cell-based
SW1088 = conditions: Homo sapiens, 72 hour incubation
Experimental: (§1) Cells were grown in RPMI 1640, 10% FBS, 2 mM L-alanyl-L-Glutamine, 1 mM Na Pyruvate, or a special medium in a humidified atmosphere of 5% CO2 at 37° C. Cells were seeded into 384-well plates and incubated in a humidified atmosphere of 5% CO2 at 37° C. Test compounds were added 24 hours post cell seeding. At the same time, a time zero, untreated cell plate was generated as a control. After a 72 hour incubation period, cells were fixed and stained with nuclear dye to allow visualization of nuclei.
(§2) Compounds were serially diluted 3.16-fold and assayed over 10 concentrations of inhibitor in a final assay concentration of 0.1% DMSO from the highest test concentration specified in the sample information chapter. Automated fluorescence microscopy was carried out using a GE Healthcare InCell Analyzer 1000, and images were collected with a 4× objective. Twelve bit tiff images were acquired using the InCell Analyzer 1000 3.2 and analyzed with Developer Toolbox 1.6 software.
(§3) Cell proliferation was measured by the signal intensity of the incorporated nuclear dye. The cell proliferation assay output is referred to as the relative cell count. To determine the cell proliferation end point, the cell proliferation data output is transformed to percent of control (POC) using the following formula: […]
(§4) Relative cell count IC50 (IC50) is the test compound's concentration that produces 50% of the cell proliferation inhibitory response or 50% cytotoxicity level. IC50 values were calculated using nonlinear regression to fit data to a sigmoidal 4 point, 4 parameter One-Site dose response model, where: y (fit)=A+[(B−A)/(1+((C/x)̂D))]. Curve-fitting, IC50 calculations and report generation were performed using a custom data reduction engine MathIQ based software (AIM). […] In these cases, the IC50 values were expressed as 40 μM and 10 μM, respectively (Table 2).

HCT-116 = conditions: Homo sapiens, 72 hour incubation
Experimental: as §1, §2, §3, §4

5637 = conditions: Homo sapiens, 72 hour incubation
Experimental: as §1, §2, §3, §4

DoTc2 4510 = conditions: Homo sapiens, 72 hour incubation
Experimental: as §1, §2, §3, §4

HeLa = conditions: Homo sapiens, 72 hour incubation
Experimental: as §1, §2, §3, §4

A204 = conditions: Homo sapiens, 72 hour incubation
Experimental: as §1, §2, §3, §4

SCaBER = conditions: Homo sapiens, 72 hour incubation
Experimental: as §1, §2, §3, §4

JEG-3 = conditions: Homo sapiens, 72 hour incubation
Experimental: as §1, §2, §3, §4

647-V = conditions: Homo sapiens, 72 hour incubation
Experimental: as §1, §2, §3, §4

EFM-19 = conditions: Homo sapiens, 72 hour incubation
Experimental: as §1, §2, §3, §4

CRO-AP2 = conditions: Homo sapiens, 72 hour incubation
Experimental: as §1, §2, §3, §4

HT1376 = conditions: Homo sapiens, HT-1376, 72 hour incubation
Experimental: as §1, §2, §3, §4

C-33A = conditions: Homo sapiens, 72 hour incubation
Experimental: as §1, §2, §3, §4

T47D = conditions: Homo sapiens, 72 hour incubation
Experimental: as §1, §2, §3, §4

SW837 = conditions: Homo sapiens, 72 hour incubation
Experimental: as §1, §2, §3, §4

C32 = conditions: Homo sapiens, 72 hour incubation
Experimental: as §1, §2, §3, §4

DBTRG-05MG = conditions: Homo sapiens, 72 hour incubation
Experimental: as §1, §2, §3, §4

HLE = conditions: Homo sapiens, 72 hour incubation
Experimental: as §1, §2, §3, §4

Caki-1 = conditions: Homo sapiens, 72 hour incubation
Experimental: as §1, §2, §3, §4

SW620 = conditions: Homo sapiens, SW-620, 72 hour incubation
Experimental: as §1, §2, §3, §4

BxPC-3 = conditions: Homo sapiens, 72 hour incubation
Experimental: as §1, §2, §3, §4

RPMI 6666 = conditions: Homo sapiens, 72 hour incubation
Experimental: as §1, §2, §3, §4

MALME3M = conditions: Homo sapiens, Malme-3M, 72 hour incubation
Experimental: as §1, §2, §3, §4

YAPC = conditions: Homo sapiens, 72 hour incubation
Experimental: as §1, §2, §3, §4

SKMES1 = conditions: Homo sapiens, SK-MES-1, 72 hour incubation
Experimental: as §1, §2, §3, §4

MDA MB 453 = conditions: Homo sapiens, 72 hour incubation
Experimental: as §1, §2, §3, §4

EB-3 = conditions: Homo sapiens, 72 hour incubation
Experimental: as §1, §2, §3, §4

COLO 829 = conditions: Homo sapiens, 72 hour incubation
Experimental: as §1, §2, §3, §4

U-87 MG = conditions: Homo sapiens, 72 hour incubation
Experimental: as §1, §2, §3, §4

DOHH-2 = conditions: Homo sapiens, 72 hour incubation
Experimental: as §1, §2, §3, §4

RPMI-7951 = conditions: Homo sapiens, 72 hour incubation
Experimental: as §1, §2, §3, §4

SW403 = conditions: Homo sapiens, SW-403, 72 hour incubation
Experimental: as §1, §2, §3, §4

SH-4 = conditions: Homo sapiens, 72 hour incubation
Experimental: as §1, §2, §3, §4

Hs 294T = conditions: Homo sapiens, 72 hour incubation
Experimental: as §1, §2, §3, §4

SNB-19 = conditions: Homo sapiens, 72 hour incubation
Experimental: as §1, §2, §3, §4

SW-13 = conditions: Homo sapiens, SW13, 72 hour incubation
Experimental: as §1, §2, §3, §4

UM-UC-3 = conditions: Homo sapiens, UMUC3, 72 hour incubation
Experimental: as §1, §2, §3, §4

CML-T1 = conditions: Homo sapiens, 72 hour incubation
Experimental: as §1, §2, §3, §4

SK-N-DZ = conditions: Homo sapiens, 72 hour incubation
Experimental: as §1, §2, §3, §4

| SMILES | pIC50 (SW1088) | pIC50 (HCT-116) | pIC50 5637 | pIC50 (DoTc2 4510) | pIC50 (HeLa) | pIC50 (A204) | pIC50 (SCaBER) | pIC50 (JEG-3) | pIC50 (647-V) | pIC50 (EFM-19) | pIC50 (CRO-AP2) | pIC50 (HT1376) | pIC50 (C-33A) | pIC50 (T47D) | pIC50 (SW837) | pIC50 (C32) | pIC50 (DBTRG-05MG) | pIC50 (HLE) | pIC50 (Caki-1) | pIC50 (SW620) | other results |
| --- | --- | --- | --- | --- | --- | --- | --- | --- | --- | --- | --- | --- | --- | --- | --- | --- | --- | --- | --- | --- | --- |
| CC1(C)CCC2(CC1)N[C@@H](C(=O)N[C@@H]1CC[C@@H](C(N)=O)OC1)[C@H](c1ccnc(Cl)c1F)[C@]21C(=O)Nc2cc(Cl)ccc21 [Compound B, (3′R,4′S,5′R)—N-[(3R,6S)-6-carbamoyltetrahydro-2H-pyran-3-yl]-6″-chloro-4′-(2-chloro-3-fluoropyridin-4-yl)-4,4-dimethyl-2″-oxo-1″,2″-dihydrodispiro[cyclohexane-1,2′-pyrrolidine-3′,3″-indole]-5′-carboxamide] | 5.04 | 7.30 | < 5.00 | < 5.00 | < 5.00 | 7.53 | < 5.00 | 6.60 | < 5.00 | < 5.00 | 7.72 | < 5.00 | 5.26 | 5.11 | < 5.00 | < 5.00 | 7.07 | < 5.00 | 7.41 | 5.15 | pIC50 (BxPC-3): < 5.00; pIC50 (RPMI 6666): 7.10; pIC50 (MALME3M): 7.06; pIC50 (YAPC): < 5.00; pIC50 (SKMES1): 5.06; pIC50 (MDA MB 453): 5.03; pIC50 (EB-3): < 5.00; pIC50 (COLO 829): 7.58; pIC50 (U-87 MG): 7.42; pIC50 (DOHH-2): 7.54; pIC50 (RPMI-7951): 5.06; pIC50 (SW403): < 5.00; pIC50 (SH-4): 6.94; pIC50 (Hs 294T): 5.49; pIC50 (SNB-19): < 5.00; pIC50 (SW-13): 5.07; pIC50 (UM-UC-3): < 5.00; pIC50 (CML-T1): 7.22; pIC50 (SK-N-DZ): < 5.00 |
| CC[C@@H]1CNC2(CC2)CN1C(=O)[C@@H]1C[C@@H](F)CN1C(=O)C1=C(C(C)C)N2C(=N[C@@](C)(c3ccc(Cl)nc3)[C@H]2c2ccc(Cl)c(F)c2)S1 [Compound A, [(5R,6S)-5-(4-Chloro-3-fluorophenyl)-6-(6-chloropyridin-3-yl)-6-methyl-3-(propan-2-yl)-5,6-dihydroimidazo[2,1-b][1,3]thiazol-2-yl][(2S,4R)-2-{[(6R)-6-ethyl-4,7-diazaspiro[2.5]oct-7-yl]carbonyl}-4-fluoropyrrolidin-1-yl]methanone] | < 4.40 | 6.19 | < 4.40 | 4.40 | < 4.40 | 6.12 | < 4.40 | 5.44 | < 4.40 | < 4.40 | 6.69 | 4.41 | < 4.40 | 4.49 | < 4.40 | < 4.40 | 6.88 | 4.54 | 6.56 | < 4.40 | pIC50 (BxPC-3): < 4.40; pIC50 (RPMI 6666): 5.77; pIC50 (MALME3M): 5.98; pIC50 (YAPC): < 4.40; pIC50 (SKMES1): 4.47; pIC50 (MDA MB 453): 4.48; pIC50 (EB-3): < 4.40; pIC50 (COLO 829): 6.54; pIC50 (U-87 MG): 6.58; pIC50 (DOHH-2): 6.91; pIC50 (RPMI-7951): < 4.40; pIC50 (SW403): < 4.40; pIC50 (SH-4): 6.23; pIC50 (Hs 294T): 5.91; pIC50 (SNB-19): < 4.40; pIC50 (SW-13): 5.08; pIC50 (UM-UC-3): < 4.40; pIC50 (CML-T1): 5.62; pIC50 (SK-N-DZ): < 4.40 |
